Experimental data from paper PMC3075257, “Evaluation of Multidrug Efflux Pump Inhibitors by a New Method Using Microfluidic Channels” (PLoS ONE, 2011).

Tests used:
Format in all cases: cell-based
[1] = target: T1, AcrAB-TolC (Escherichia coli, UniProt P31224); assay: FDG influx and hydrolysis in wild-type against ΔacrB cells, microfluidic channel fluorescence microscopy; conditions: 100 µg/ml FDG, LB, lactose-induced β-galactosidase, 15 min, 37°C
T1 construct: gene acrB; native chromosomal pump in intact cells, judged against ΔacrB and ΔtolC deletion mutants; with Multidrug efflux pump subunit AcrA; Outer membrane protein TolC
T1 sequence (P0AE06 25-397): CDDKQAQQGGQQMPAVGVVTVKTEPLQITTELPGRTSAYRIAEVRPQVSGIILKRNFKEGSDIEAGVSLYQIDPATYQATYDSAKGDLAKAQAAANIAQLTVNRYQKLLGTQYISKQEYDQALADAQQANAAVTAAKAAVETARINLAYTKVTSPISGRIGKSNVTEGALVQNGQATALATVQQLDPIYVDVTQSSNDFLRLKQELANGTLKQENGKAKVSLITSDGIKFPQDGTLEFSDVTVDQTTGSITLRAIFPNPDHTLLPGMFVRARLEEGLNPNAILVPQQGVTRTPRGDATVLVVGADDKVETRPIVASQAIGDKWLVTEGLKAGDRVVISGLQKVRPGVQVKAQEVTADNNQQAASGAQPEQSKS
T1 sequence (P02930 23-493, further chain): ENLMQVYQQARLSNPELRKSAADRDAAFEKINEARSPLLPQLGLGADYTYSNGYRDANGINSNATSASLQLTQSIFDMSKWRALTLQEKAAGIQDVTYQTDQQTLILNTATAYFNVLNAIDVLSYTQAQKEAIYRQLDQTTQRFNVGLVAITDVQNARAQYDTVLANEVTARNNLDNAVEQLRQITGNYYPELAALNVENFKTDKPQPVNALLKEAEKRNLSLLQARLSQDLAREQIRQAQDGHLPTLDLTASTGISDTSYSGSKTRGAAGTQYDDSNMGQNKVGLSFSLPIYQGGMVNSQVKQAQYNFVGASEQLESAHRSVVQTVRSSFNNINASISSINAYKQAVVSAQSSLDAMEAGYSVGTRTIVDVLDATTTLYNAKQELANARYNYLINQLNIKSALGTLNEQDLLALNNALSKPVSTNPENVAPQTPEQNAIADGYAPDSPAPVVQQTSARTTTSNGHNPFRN
T1 sequence (P31224 whole entry): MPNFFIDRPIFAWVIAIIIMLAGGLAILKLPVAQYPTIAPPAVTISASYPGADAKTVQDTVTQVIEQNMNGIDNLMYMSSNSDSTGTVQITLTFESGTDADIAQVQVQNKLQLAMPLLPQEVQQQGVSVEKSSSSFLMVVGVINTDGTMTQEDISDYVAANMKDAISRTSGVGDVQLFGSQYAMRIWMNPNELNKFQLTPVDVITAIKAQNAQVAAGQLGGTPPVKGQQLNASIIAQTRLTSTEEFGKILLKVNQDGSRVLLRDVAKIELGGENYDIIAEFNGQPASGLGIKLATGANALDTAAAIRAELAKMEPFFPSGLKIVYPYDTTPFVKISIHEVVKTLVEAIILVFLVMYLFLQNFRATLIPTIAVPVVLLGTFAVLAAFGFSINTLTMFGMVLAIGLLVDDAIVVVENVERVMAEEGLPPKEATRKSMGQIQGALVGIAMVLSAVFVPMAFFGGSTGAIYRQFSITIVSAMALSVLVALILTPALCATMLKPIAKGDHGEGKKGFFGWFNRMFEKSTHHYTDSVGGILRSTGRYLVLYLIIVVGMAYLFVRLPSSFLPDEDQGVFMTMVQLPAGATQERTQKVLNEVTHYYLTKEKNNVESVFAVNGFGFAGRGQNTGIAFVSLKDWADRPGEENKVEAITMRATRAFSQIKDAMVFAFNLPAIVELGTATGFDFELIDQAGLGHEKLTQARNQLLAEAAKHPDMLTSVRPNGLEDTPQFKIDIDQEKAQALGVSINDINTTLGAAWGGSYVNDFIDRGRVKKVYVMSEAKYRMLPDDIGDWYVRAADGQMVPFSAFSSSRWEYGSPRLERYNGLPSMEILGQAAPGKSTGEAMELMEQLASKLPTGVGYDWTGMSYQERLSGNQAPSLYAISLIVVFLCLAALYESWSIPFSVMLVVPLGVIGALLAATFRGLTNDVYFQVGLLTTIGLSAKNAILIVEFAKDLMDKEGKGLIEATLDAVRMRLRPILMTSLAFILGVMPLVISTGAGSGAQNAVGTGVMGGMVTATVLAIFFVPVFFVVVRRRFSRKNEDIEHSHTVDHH

[2] = target: T2, MexXY-OprM (Pseudomonas aeruginosa, UniProt G3XCW2); assay: fluorescein efflux from E. coli cells loaded with FDG, microfluidic channel fluorescence microscopy; conditions: ΔBC/pXYM against vector control ΔBC/pV, 100 µg/ml FDG, LB, 15 min, 37°C; exported dye formed in the cell from FDG
T2 construct: gene mexY; full-length tripartite RND efflux pump from plasmid pMMB67HE::mexXY-oprM in E. coli MG1655 ΔacrBΔtolC, IPTG-induced; with Multidrug efflux RND transporter periplasmic adaptor subunit MexX; Outer membrane protein OprM
T2 sequence (G3XCW2 entry or part of it): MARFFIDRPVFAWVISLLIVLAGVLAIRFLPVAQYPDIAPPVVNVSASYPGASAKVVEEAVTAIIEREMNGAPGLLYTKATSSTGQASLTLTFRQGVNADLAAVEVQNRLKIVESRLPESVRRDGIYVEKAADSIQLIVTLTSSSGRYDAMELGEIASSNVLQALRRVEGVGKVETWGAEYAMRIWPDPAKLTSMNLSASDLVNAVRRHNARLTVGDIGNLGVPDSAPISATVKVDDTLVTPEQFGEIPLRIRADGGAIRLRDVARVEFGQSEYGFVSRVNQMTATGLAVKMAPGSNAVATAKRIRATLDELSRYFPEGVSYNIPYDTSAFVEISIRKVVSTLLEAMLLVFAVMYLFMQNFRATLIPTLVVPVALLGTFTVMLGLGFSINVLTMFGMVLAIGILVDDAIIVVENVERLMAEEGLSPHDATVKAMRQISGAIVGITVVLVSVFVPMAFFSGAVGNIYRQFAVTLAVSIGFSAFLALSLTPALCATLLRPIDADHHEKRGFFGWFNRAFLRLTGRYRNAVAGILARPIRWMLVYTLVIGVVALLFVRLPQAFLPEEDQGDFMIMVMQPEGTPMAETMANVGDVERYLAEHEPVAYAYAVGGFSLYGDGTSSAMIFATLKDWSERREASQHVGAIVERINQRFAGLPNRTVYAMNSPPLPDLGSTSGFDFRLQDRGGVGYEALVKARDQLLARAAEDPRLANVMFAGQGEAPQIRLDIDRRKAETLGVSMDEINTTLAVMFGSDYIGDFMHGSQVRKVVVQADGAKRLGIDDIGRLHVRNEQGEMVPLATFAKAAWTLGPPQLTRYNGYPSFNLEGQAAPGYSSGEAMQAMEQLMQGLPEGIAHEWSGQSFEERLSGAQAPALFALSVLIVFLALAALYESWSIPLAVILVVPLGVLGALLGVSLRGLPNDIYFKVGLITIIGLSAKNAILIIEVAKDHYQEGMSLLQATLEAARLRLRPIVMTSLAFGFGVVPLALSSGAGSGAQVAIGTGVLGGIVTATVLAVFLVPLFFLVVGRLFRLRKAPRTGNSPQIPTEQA
T2 sequence (G3XD21 entry or part of it, further chain): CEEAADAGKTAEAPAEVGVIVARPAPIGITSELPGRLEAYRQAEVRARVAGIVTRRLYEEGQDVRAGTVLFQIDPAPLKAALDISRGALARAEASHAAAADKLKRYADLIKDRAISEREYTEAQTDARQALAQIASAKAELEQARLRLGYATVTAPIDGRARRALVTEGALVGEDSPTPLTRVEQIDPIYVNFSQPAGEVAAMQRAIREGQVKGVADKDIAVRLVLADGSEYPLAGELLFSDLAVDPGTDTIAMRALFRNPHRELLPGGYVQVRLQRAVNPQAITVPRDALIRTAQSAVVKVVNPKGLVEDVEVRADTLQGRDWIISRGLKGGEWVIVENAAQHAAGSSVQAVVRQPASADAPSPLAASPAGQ
T2 sequence (Q51487 18-485, further chain): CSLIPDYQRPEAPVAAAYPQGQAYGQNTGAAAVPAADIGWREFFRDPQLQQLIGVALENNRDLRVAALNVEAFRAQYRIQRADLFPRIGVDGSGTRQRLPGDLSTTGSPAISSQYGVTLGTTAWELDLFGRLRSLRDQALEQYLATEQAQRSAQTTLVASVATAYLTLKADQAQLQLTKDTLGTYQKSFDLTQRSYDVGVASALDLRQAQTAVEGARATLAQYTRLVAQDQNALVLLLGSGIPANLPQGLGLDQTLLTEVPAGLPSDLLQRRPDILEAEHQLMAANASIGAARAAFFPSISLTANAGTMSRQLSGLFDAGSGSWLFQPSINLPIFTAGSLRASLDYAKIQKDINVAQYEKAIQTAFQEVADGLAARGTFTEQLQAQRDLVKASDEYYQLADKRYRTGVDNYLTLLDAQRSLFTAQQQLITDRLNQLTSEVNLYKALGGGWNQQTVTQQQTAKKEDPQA

[3] = target: T3, MexAB-OprM (Pseudomonas aeruginosa, UniProt P52002); assay: as above; conditions: ΔBC/pABM against vector control ΔBC/pV, 100 µg/ml FDG, LB, 15 min, 37°C; exported dye formed in the cell from FDG
T3 construct: gene mexB; full-length tripartite RND efflux pump from plasmid pMMB67HE::mexAB-oprM in E. coli MG1655 ΔacrBΔtolC, IPTG-induced; with Multidrug resistance protein MexA; Outer membrane protein OprM

O=C1OC2(c3ccc(O[C@@H]4O[C@H](CO)[C@H](O)[C@H](O)[C@H]4O)cc3Oc3cc(O[C@@H]4O[C@H](CO)[C@H](O)[C@H](O)[C@H]4O)ccc32)c2ccccc21 [Fluorescein-di-β-D-galactopyranoside]
FDG influx and hydrolysis in wild-type against ΔacrB cells, microfluidic channel [1]: AcrAB-TolC and the analogous RND pumps effectively prevented FDG influx in E. coli wild-type cells

O=C1OC2(c3ccc(O)cc3Oc3cc(O)ccc32)c2ccccc21 [fluorescein]
fluorescein efflux from E. coli cells loaded with FDG, microfluidic channel fluo [2]: The fluorescent medium was observed in ΔBC carrying pABM or pXYM | fluorescein efflux from E. coli cells loaded with FDG, microfluidic channel fluo [3]: The fluorescent medium was observed in ΔBC carrying pABM or pXYM
